Source: ChEMBL document CHEMBL5550214, “Expanding Structure-Activity Relationships of Human Urotensin II Peptide Analogues: A Proposed Key Role of the N-Terminal Region for Novel Urotensin II Receptor Modulators” (J Med Chem, 2024)
The source made the active and inactive calls. The rule behind the calls is not given here.

Tests used:
[1] = tested on: Aortic ring; assay: Induction of contraction in Albino Wistar rat aortic ring assessed as Emax of [Ala1]U-II at 1 uM incubated for 30 mins in presence of [Ala1]U-II (reference value: 323 +/- 30.45 dyne/mg); assay type: functional, Aorta; conditions: 0.5 h
[2] = molecular target: T1, Urotensin-2 receptor (Homo sapiens) (UniProt Q9UKP6); assay: Modulation of human UTR stably expressed in HEK293 cells assessed as increase in Ca2+ level at 0.1 to 100 nM by Fura 2-AM dye based calcium mobilization assay; assay type: functional, cell-based; conditions: dose 0.1-100 nM
T1 sequence (whole entry): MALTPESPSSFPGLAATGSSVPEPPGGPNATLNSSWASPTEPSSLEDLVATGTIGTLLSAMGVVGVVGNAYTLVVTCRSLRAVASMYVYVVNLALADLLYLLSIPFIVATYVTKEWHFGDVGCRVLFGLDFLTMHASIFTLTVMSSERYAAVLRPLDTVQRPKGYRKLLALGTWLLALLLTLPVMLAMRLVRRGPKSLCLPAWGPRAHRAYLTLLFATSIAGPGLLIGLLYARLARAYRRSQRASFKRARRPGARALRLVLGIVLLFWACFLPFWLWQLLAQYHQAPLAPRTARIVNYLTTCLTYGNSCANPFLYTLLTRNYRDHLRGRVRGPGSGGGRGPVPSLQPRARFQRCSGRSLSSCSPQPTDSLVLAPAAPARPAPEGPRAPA

[3] = tested on: Aortic ring; assay: Induction of contraction in Albino Wistar rat aortic ring assessed as Emax of [Ala1]U-II at 10 uM incubated for 30 mins in presence of [Ala1]U-II (reference value: 220.3 +/- 17.48 dyne/mg); assay type: functional, Aorta; conditions: 0.5 h
[4] = tested on: Aortic ring; assay: Induction of contraction in Albino Wistar rat aortic ring assessed as Emax of hU-II at 0.1 uM incubated for 30 mins in presence of hU-II (reference value: 238.4 +/- 9.53 dyne/mg); assay type: functional, Aorta; conditions: 0.5 h
[5] = tested on: Aortic ring; assay: Induction of contraction in Albino Wistar rat aortic ring assessed as Emax of U-II(4-11) at 0.1 uM incubated for 30 mins in presence of U-II(4-11) (reference value: 152.4 +/- 5.1 dyne/mg); assay type: functional, Aorta; conditions: 0.5 h
[6] = tested on: Aortic ring; assay: Induction of contraction in Albino Wistar rat aortic ring assessed as Emax of [Ala1]U-II at 0.1 uM incubated for 30 mins in presence of [Ala1]U-II (reference value: 391.6 +/- 38.83 dyne/mg); assay type: functional, Aorta; conditions: 0.5 h
[7] = tested on: Aortic ring; assay: Induction of contraction in Albino Wistar rat aortic ring assessed as Emax of U-II(4-11) at 10 uM incubated for 30 mins in presence of U-II(4-11) (reference value: 159.8 +/- 7.39 dyne/mg); assay type: functional, Aorta; conditions: 0.5 h
[8] = tested on: Aortic ring; assay: Induction of contraction in Albino Wistar rat aortic ring assessed as Emax of hU-II at 10 uM incubated for 30 mins in presence of hU-II (reference value: 251.4 +/- 15.43 dyne/mg); assay type: functional, Aorta; conditions: 0.5 h
[9] = tested on: Aortic ring; assay: Induction of contraction in Albino Wistar rat aortic ring assessed as Emax of hU-II at 1 uM incubated for 30 mins in presence of hU-II (reference value: 279.9 +/- 11.02 dyne/mg); assay type: functional, Aorta; conditions: 0.5 h
[10] = tested on: Aortic ring; assay: Induction of contraction in Albino Wistar rat aortic ring at 1 to 30 nM; assay type: functional, tissue-based; conditions: Aorta, dose 1-30 nM
[11] = tested on: Aortic ring; assay: Induction of contraction in Albino Wistar rat aortic ring assessed as Emax of U-II(4-11) at 1 uM incubated for 30 mins in presence of U-II(4-11) (reference value: 242.6 +/- 20.63 dyne/mg); assay type: functional, Aorta; conditions: 0.5 h
[12] = tested on: Aortic ring; assay: Induction of contraction in Albino Wistar rat aortic ring assessed as Emax of hU-II at 10 uM incubated for 30 mins in presence of hU-II (reference value: 279.9 +/- 11.02 dyne/mg); assay type: functional, Aorta; conditions: 0.5 h
[13] = tested on: Aortic ring; assay: Induction of contraction in Albino Wistar rat aortic ring assessed as Emax of U-II(4-11) at 0.1 uM incubated for 30 mins in presence of U-II(4-11) (reference value: 159.8 +/- 7.3 dyne/mg); assay type: functional, Aorta; conditions: 0.5 h
[14] = tested on: Aortic ring; assay: Induction of contraction in Albino Wistar rat aortic ring assessed as Emax of U-II(4-11) at 10 uM incubated for 30 mins in presence of U-II(4-11) (reference value: 242.6 +/- 20.63 dyne/mg); assay type: functional, Aorta; conditions: 0.5 h
[15] = tested on: Aortic ring; assay: Induction of contraction in Albino Wistar rat aortic ring assessed as Emax of [Ala1]U-II at 1 uM incubated for 30 mins in presence of [Ala1]U-II (reference value: 391.6 +/- 38.83 dyne/mg); assay type: functional, Aorta; conditions: 0.5 h
[16] = tested on: Aortic ring; assay: Induction of contraction in Albino Wistar rat aortic ring assessed as Emax of [Ala1]U-II at 0.1 uM incubated for 30 mins in presence of [Ala1]U-II (reference value: 153.3 +/- 10.75 dyne/mg); assay type: functional, Aorta; conditions: 0.5 h
[17] = tested on: Aortic ring; assay: Induction of contraction in Albino Wistar rat aortic ring assessed as Emax of U-II(4-11) at 1 uM incubated for 30 mins in presence of U-II(4-11) (reference value: 152.4 +/- 5.1 dyne/mg); assay type: functional, Aorta; conditions: 0.5 h
[18] = tested on: Aortic ring; assay: Induction of contraction in Albino Wistar rat aortic ring assessed as Emax of [Ala1]U-II at 10 uM incubated for 30 mins in presence of [Ala1]U-II (reference value: 323 +/- 30.45 dyne/mg); assay type: functional, Aorta; conditions: 0.5 h
[19] = tested on: Aortic ring; assay: Induction of contraction in Albino Wistar rat aortic ring assessed as Emax of hU-II at 0.1 uM incubated for 30 mins in presence of hU-II (reference value: 214.5 +/- 10.51 dyne/mg); assay type: functional, Aorta; conditions: 0.5 h
[20] = tested on: Aortic ring; assay: Induction of contraction in Albino Wistar rat aortic ring assessed as Emax of hU-II at 1 uM incubated for 30 mins in presence of hU-II (reference value: 238.4 +/- 9.53 dyne/mg); assay type: functional, Aorta; conditions: 0.5 h

| Compound | Emax [1] | Activity [2] | Emax [3] | Emax [4] | Emax [5] | Emax [6] | Emax [7] | Emax [8] | Emax [9] | Activity [10] | Emax [11] | Emax [12] | Emax [13] | Emax [14] | Emax [15] | Emax [16] | Emax [17] | Emax [18] | Emax [19] | Emax [20] |
| --- | --- | --- | --- | --- | --- | --- | --- | --- | --- | --- | --- | --- | --- | --- | --- | --- | --- | --- | --- | --- |
| CC(C)[C@H](NC(=O)[C@@H]1CSSC(C)(C)[C@H](NC(=O)[C@H](CC(=O)O)NC(=O)[C@@H]2CCCN2C(=O)[C@@H](NC(=O)[C@@H](N)CCO)[C@@H](C)O)C(=O)N[C@@H](Cc2ccccc2)C(=O)N[C@H](Cc2c[nH]c3ccccc23)C(=O)N[C@@H](CCCN)C(=O)N[C@@H](Cc2ccc(O)cc2)C(=O)N1)C(=O)O | 119.1 dyn/mg | inactive | 148.9 dyn/mg | 179.2 dyn/mg | 120.9 dyn/mg | 251.5 dyn/mg | 111.3 dyn/mg | 181.9 dyn/mg | 188.6 dyn/mg | inactive | 93.38 dyn/mg |  |  |  |  |  |  |  |  |  |
| CC(C)[C@H](NC(=O)[C@@H]1CSSC(C)(C)[C@H](NC(=O)[C@H](C)NC(=O)[C@@H]2CCCN2C(=O)[C@@H](NC(=O)[C@H](C)N)[C@@H](C)O)C(=O)N[C@@H](Cc2ccccc2)C(=O)N[C@H](Cc2c[nH]c3ccccc23)C(=O)N[C@@H](CCCN)C(=O)N[C@@H](Cc2ccc(O)cc2)C(=O)N1)C(=O)O |  |  |  |  |  |  |  |  |  | inactive |  | 126.2 dyn/mg | 354.4 dyn/mg | 261.8 dyn/mg | 593 dyn/mg | 406.4 dyn/mg | 502.2 dyn/mg | 457.6 dyn/mg | 386.5 dyn/mg | 231.1 dyn/mg |
